Patent US12690589B2, “Herbicidal compositions comprising pyroxasulfone” (BASF SE, priority 2024, dated 2026)

Tests used:
Experiment in all cases: Post-emergence application in field trials, herbicidal activity (damage scale 0 to 100%)
Type in all cases: in vivo
[1] = system: Echinochloa crus-galli (ECHCG)
Description: (§1) In the examples below, using the method of S. R. Colby (1967) “Calculating synergistic and antagonistic responses of herbicide combinations”, Weeds 15, p. 22ff., the value E, which is expected if the activity of the individual active compounds is only additive, was calculated:
(§2) [formula] • wherein • X=percent activity using active herbicide A at an application rate a; • Y=percent activity using active herbicide B (e.g. pyroxasulfone) at an application rate b; • E=expected activity (in %) by A+B at application rates a+b.
(§3) If the value found experimentally is higher than the value E calculated according to Colby, a synergistic effect is present.
(§4) On field test sites, natural weed infestation or seeded weeds were treated post-emergence of the weeds.
(§5) In the field trials, the weeds were treated as indicated below.
(§6) In the following experiments, the herbicidal activity for the individual herbicidal compositions (solo and mixture applications) was assessed at the indicated days after treatment (DAT). The assessments for the damage on undesired weeds caused by the composition was carried out using a scale from 0 to 100%, compared to the untreated control plants. Here, 0 means no damage and 100 means complete destruction of the plants.
Herbicide A-1 (50 g/l) and pyroxasulfone (85% WG) were, together with addition of 0.5% MSO (methylated seed oil) as adjuvant, formulated in water as distribution medium (water volume 200 l/ha) and sprayed with commercial flat fan nozzles.

[2] = system: Digitaria sanguinalis (DIGSA)
Description: as §1, §2
(§7) For 3-component mixtures the synergistic response was calculated as described in: Ferry, Nancy; Stanley, Bruce H.; and Armel, Gregory (2005). “DESIGN AND ANALYSIS OF BIOLOGICAL ASSAYS OF MIXTURES,” Conference on Applied Statistics in Agriculture. https://doi.org/10.4148/2475-7772.1133. According to this publication, the Colby calculation can be generalized to a third mixing partner, Z, employing the following formula: […]
as §3, §4, §5, §6
(§8) Herbicide A-1 (342 g/l) and pyroxasulfone (500 g/l) were, together with addition of 0.25 v/v % MSO (methylated seed oil) as adjuvant, formulated in 200 l/ha water as distribution medium and sprayed with commercial flat fan nozzles.
(§9) Herbicide A-1 (342 g/l), pyroxasulfone (500 g/l) and trifludimoxazin (500 g/l) were, together with addition of 0.25 v/v % MSO (methylated seed oil) as adjuvant, formulated in 200 l/ha water as distribution medium and sprayed with commercial flat fan nozzles.
(§10) Herbicide A-1 (342 g/I), pyroxasulfone (500 g/l) and glyphosate-isopropylammonium (356 g/l) were, together with addition of 0.25 v/v % MSO (methylated seed oil) as adjuvant, formulated in 200 l/ha water as distribution medium and sprayed with commercial flat fan nozzles.
(§11) Herbicide A-1 (342 g/l), pyroxasulfone (500 g/l) and glufosinate-P-ammonium (211 g/l) were, together with addition of 0.25 v/v % MSO (methylated seed oil) as adjuvant, formulated in 200 l/ha water as distribution medium and sprayed with commercial flat fan nozzles.
(§12) Herbicide A-1 (342 g/l), pyroxasulfone (500 g/l) and 2,4-D-choline (456 g/l) were, together with addition of 0.25 v/v % MSO (methylated seed oil) as adjuvant, formulated in 200 l/ha water as distribution medium and sprayed with commercial flat fan nozzles.

Zea mays (ZEAMX) = conditions: stage 15-16, height 27-33 cm
Description: as §1, §2, §7, §3, §4, §5, §6, §8, §9, §10, §11, §12

Measured: % Herbicidal activity

CCOC(=O)COc1ccccc1Oc1nc(-n2c(=O)cc(C(F)(F)F)n(C)c2=O)c(F)cc1Cl [A-1, ethyl 2-[2-[[3-chloro-5-fluoro-6-[3-methyl-2,6-dioxo-4-(trifluoromethyl)pyrimidin-1-yl]-2-pyridyl]oxy]phenoxy]acetate]
85%: [2]; 7 DAT, stage 22, height 10-15 cm, g ai/ha A-1 18, B 70, C-4 12.5 | [2]; 7 DAT, stage 22, height 10-15 cm, g ai/ha A-1 18, B 70, C-12 252 | [2]; 7 DAT, stage 22, height 10-15 cm, g ai/ha A-1 18, B 90, C-4 12.5 | [2]; 7 DAT, stage 22, height 10-15 cm, g ai/ha A-1 18, B 90, C-12 252 | [2]; 21 DAT, stage 22, height 10-15 cm, g ai/ha A-1 18, B 70, C-12 252 | [2]; 21 DAT, stage 22, height 10-15 cm, g ai/ha A-1 18, B 90, C-12 252
25%: Zea mays (ZEAMX); 21 DAT, g ai/ha A-1 12.5, B 70, C-12 252
65%: [2]; 42 DAT, stage 22, height 10-15 cm, g ai/ha A-1 12.5, B 70
60%: [1]; ECHCG, height 20-25 cm, A-1 25 g ai/ha, 21 DAT, Table 2.3 | [2]; 42 DAT, stage 22, height 10-15 cm, g ai/ha A-1 12.5, B 70, C-4 12.5 | [2]; Table 8.4, 42 DAT, stage 22, height 10-15 cm, g ai/ha A-1 18, B 70, C-12 1066
80%: [2]; 7 DAT, stage 22, height 10-15 cm, g ai/ha A-1 12.5, B 70, C-4 12.5 | [2]; 7 DAT, stage 22, height 10-15 cm, g ai/ha A-1 18, B 70, C-8 840 | [2]; 7 DAT, stage 22, height 10-15 cm, g ai/ha A-1 18, B 90, C-8 840 | [2]; 21 DAT, stage 22, height 10-15 cm, g ai/ha A-1 18, B 70, C-4 12.5 | [2]; 21 DAT, stage 22, height 10-15 cm, g ai/ha A-1 18, B 90, C-4 12.5 | [2]; 42 DAT, stage 22, height 10-15 cm, g ai/ha A-1 18, B 70 | [2]; 42 DAT, stage 22, height 10-15 cm, g ai/ha A-1 18, B 90 | [2]; DIGSA, growth stage 22, height 10-15 cm, A-1 12.5 g ai/ha, 7 DAT, Table 4.1 | [2]; DIGSA, growth stage 22, height 10-15 cm, A-1 18 g ai/ha, 7 DAT, Table 4.1 | [2]; DIGSA, growth stage 22, height 10-15 cm, A-1 18 g ai/ha, 21 DAT, Table 4.3 | [2]; Table 8.1, 7 DAT, stage 22, height 10-15 cm, g ai/ha A-1 18, B 70, C-12 1066 | [2]; Table 8.2, 21 DAT, stage 22, height 10-15 cm, g ai/ha A-1 18, B 70, C-12 1066
55%: Zea mays (ZEAMX); 7 DAT, g ai/ha A-1 18, B 90, C-4 12.5
30%: [1]; 7 DAT, stage 23-30, height 15-20 cm, g ai/ha A-1 12.5, B 70, C-12 252 | [1]; 21 DAT, stage 23-30, height 15-20 cm, g ai/ha A-1 12.5, B 70, C-12 252 | [1]; 28 DAT, stage 23-30, height 15-20 cm, g ai/ha A-1 12.5, B 70, C-12 252 | [1]; Table 8.2, 21 DAT, stage 23-30, height 15-20 cm, g ai/ha A-1 18, B 70, C-12 1066 | [1]; Table 8.2, 21 DAT, stage 23-30, height 15-20 cm, g ai/ha A-1 18, B 90, C-12 1066 | [1]; Table 8.3, 28 DAT, stage 23-30, height 15-20 cm, g ai/ha A-1 18, B 70, C-12 1066 | [1]; Table 8.3, 28 DAT, stage 23-30, height 15-20 cm, g ai/ha A-1 18, B 90, C-12 1066
40%: Zea mays (ZEAMX); 7 DAT, g ai/ha A-1 12.5, B 70, C-12 252 | Zea mays (ZEAMX); 7 DAT, g ai/ha A-1 18, B 70, C-12 252 | Zea mays (ZEAMX); 7 DAT, g ai/ha A-1 18, B 90, C-12 252
70%: [2]; 21 DAT, stage 22, height 10-15 cm, g ai/ha A-1 12.5, B 70, C-4 12.5 | [2]; 42 DAT, stage 22, height 10-15 cm, g ai/ha A-1 18, B 70, C-4 12.5 | [2]; 42 DAT, stage 22, height 10-15 cm, g ai/ha A-1 18, B 70, C-12 252 | [2]; 42 DAT, stage 22, height 10-15 cm, g ai/ha A-1 18, B 90, C-4 12.5 | [2]; 42 DAT, stage 22, height 10-15 cm, g ai/ha A-1 18, B 90, C-12 252 | [2]; DIGSA, growth stage 22, height 10-15 cm, A-1 12.5 g ai/ha, 21 DAT, Table 4.3
